Article PMC5392334, “Discovery and characterization of a novel irreversible EGFR mutants selective and potent kinase inhibitor CHMFL-EGFR-26 with a distinct binding mode” (Oncotarget, 2017)
Several values for one entry are separate records, joined by “and”; a condition that tells them apart may be missing. Identical values can stand only once.

Experiments:
[1] = target: T1, ADCK4 (Homo sapiens, UniProt Q96D53); assay: KinomeScan; type: binding; details: read-out: % control
T1 construct: purchased DiscoveRx KINOMEscan

[2] = target: T2, KIT (Homo sapiens, UniProt P10721); assay: KinomeScan; type: binding; details: read-out: % control
T2 construct: purchased DiscoveRx KINOMEscan

[3] = target: T3, TNK2 (Homo sapiens, UniProt Q07912); assay: KinomeScan; type: binding; details: read-out: % control
T3 construct: purchased DiscoveRx KINOMEscan

[4] = target: T4, RSK3(Kin.Dom.1-N-terminal) (Homo sapiens, UniProt Q15349); assay: KinomeScan; type: binding; details: read-out: % control
T4 construct: RSK3(Kin.Dom.1-N-terminal); purchased DiscoveRx KINOMEscan

[5] = target: T5, ABL2 (Homo sapiens, UniProt P42684); assay: KinomeScan; type: binding; details: read-out: % control
T5 construct: purchased DiscoveRx KINOMEscan

[6] = target: T6, STK33 (Homo sapiens, UniProt Q9BYT3); assay: KinomeScan; type: binding; details: read-out: % control
T6 construct: purchased DiscoveRx KINOMEscan

[7] = target: T7, MARK4 (Homo sapiens, UniProt Q96L34); assay: KinomeScan; type: binding; details: read-out: % control
T7 construct: purchased DiscoveRx KINOMEscan

[8] = target: T8, PIP5K2C (Homo sapiens, UniProt Q8TBX8); assay: KinomeScan; type: binding; details: read-out: % control
T8 construct: purchased DiscoveRx KINOMEscan

[9] = target: T9, PIK3CA(M1043I) (Homo sapiens, UniProt P42336, M1043I); assay: KinomeScan; type: binding; details: read-out: % control
T9 construct: purchased DiscoveRx KINOMEscan

[10] = target: T10, TRKB (Homo sapiens, UniProt Q16620); assay: KinomeScan; type: binding; details: read-out: % control
T10 construct: purchased DiscoveRx KINOMEscan

[11] = target: T11, MYO3A (Homo sapiens, UniProt Q8NEV4); assay: KinomeScan; type: binding; details: read-out: % control
T11 construct: purchased DiscoveRx KINOMEscan

[12] = target: T12, MEK1 (Homo sapiens, UniProt Q02750); assay: Invitrogen SelectScreen biochemical assay
T12 construct: purchased Invitrogen (SelectScreen service)
From the text: (§1) In order to better understand CHMFL-EGFR-26's selectivity, we then tested it in DiscoveRx's KinomeScan™ assay. […] Given the fact that KinomeScan™ is a binding assay and sometimes cannot truly reflect the compound inhibitory activity, we then used Invitrogen SelectScreen® assay to test these potential off-targets (Supplementary Table 2). […] This was not surprising because EGFR, JAK3, HER2, HER4 and TEC family kinases (BTK, BLK and BMX) all share a similar cysteine residue at the identical position analogous to Cys 797 in EGFR in the hinge binding area.
(§2) www.impactjournals.com/oncotarget/ Oncotarget, Supplementary Materials 2017
(§3) KinomeScan Profiling by invitrogen SelectScreen® assay
(§4) (1 picture or pasted object on this page, not shown here)

[13] = target: T13, HER2 (Homo sapiens, UniProt P04626); assay: Invitrogen SelectScreen biochemical assay
T13 construct: purchased Invitrogen (SelectScreen service)
From the text: as §1, §2, §3, §4

[14] = target: T14, BLK (Homo sapiens, UniProt P51451); assay: Invitrogen SelectScreen biochemical assay
T14 construct: purchased Invitrogen (SelectScreen service)
From the text: as §1, §2, §3, §4

[15] = target: T15, BMX (Homo sapiens, UniProt P51813); assay: Invitrogen SelectScreen biochemical assay
T15 construct: purchased Invitrogen (SelectScreen service)
From the text: as §1, §2, §3, §4

[16] = target: T16, JAK3 (Homo sapiens, UniProt P52333); assay: Invitrogen SelectScreen biochemical assay
T16 construct: purchased Invitrogen (SelectScreen service)
From the text: as §1, §2, §3, §4

[17] = target: T17, BTK (Homo sapiens, UniProt Q06187); assay: Invitrogen SelectScreen biochemical assay
T17 construct: purchased Invitrogen (SelectScreen service)
From the text: as §1, §2, §3, §4

[18] = target: T18, HER4 (Homo sapiens, UniProt Q15303); assay: Invitrogen SelectScreen biochemical assay
T18 construct: purchased Invitrogen (SelectScreen service)
From the text: as §1, §2, §3, §4

[19] = target: T19, ROCK1 (Homo sapiens, UniProt Q13464); assay: KinomeScan; type: binding; details: read-out: % control
T19 construct: purchased DiscoveRx KINOMEscan

[20] = target: T20, CHEK1 (Homo sapiens, UniProt O14757); assay: KinomeScan; type: binding; details: read-out: % control
T20 construct: purchased DiscoveRx KINOMEscan

[21] = tested on: FLT3(ITD,F691L); assay: KinomeScan; type: binding; details: 1μM
[22] = target: T21, ERK3 (Homo sapiens, UniProt Q16659); assay: KinomeScan; type: binding; details: read-out: % control
T21 construct: purchased DiscoveRx KINOMEscan

[23] = target: T22, DAPK2 (Homo sapiens, UniProt Q9UIK4); assay: KinomeScan; type: binding; details: read-out: % control
T22 construct: purchased DiscoveRx KINOMEscan

[24] = target: T23, TNK1 (Homo sapiens, UniProt Q13470); assay: KinomeScan; type: binding; details: read-out: % control
T23 construct: purchased DiscoveRx KINOMEscan

[25] = target: T24, DMPK2 (Homo sapiens, UniProt Q6DT37); assay: KinomeScan; type: binding; details: read-out: % control
T24 construct: purchased DiscoveRx KINOMEscan

[26] = target: T25, FES (Homo sapiens, UniProt P07332); assay: KinomeScan; type: binding; details: read-out: % control
T25 construct: purchased DiscoveRx KINOMEscan

[27] = target: T26, PKNB(M.tuberculosis) (Mycobacterium tuberculosis, UniProt P9WI81); assay: KinomeScan; type: binding; details: read-out: % control
T26 construct: purchased DiscoveRx KINOMEscan

[28] = target: T27, YES (Homo sapiens, UniProt P07947); assay: KinomeScan; type: binding; details: read-out: % control
T27 construct: purchased DiscoveRx KINOMEscan

[29] = target: T28, ACVR1 (Homo sapiens, UniProt Q04771); assay: KinomeScan; type: binding; details: read-out: % control
T28 construct: purchased DiscoveRx KINOMEscan

[30] = target: T29, MST1 (Homo sapiens, UniProt Q13043); assay: KinomeScan; type: binding; details: read-out: % control
T29 construct: purchased DiscoveRx KINOMEscan

[31] = target: EGFR(ErbB1) (Homo sapiens, UniProt P00533); assay: SelectScreen biochemical assay
From the text: The enzymatic inhibition result of CHMFL-EGFR-26 was detected by SelectScreen techonology (Life Technologies).

[32] = target: T30, AKT1 (Homo sapiens, UniProt P31749); assay: KinomeScan; type: binding; details: read-out: % control
T30 construct: purchased DiscoveRx KINOMEscan

[33] = target: T31, HIPK2 (Homo sapiens, UniProt Q9H2X6); assay: KinomeScan; type: binding; details: read-out: % control
T31 construct: purchased DiscoveRx KINOMEscan

[34] = target: T32, CAMK1D (Homo sapiens, UniProt Q8IU85); assay: KinomeScan; type: binding; details: read-out: % control
T32 construct: purchased DiscoveRx KINOMEscan

[35] = target: RPS6KA4(Kin.Dom.2-C-terminal) (Homo sapiens, UniProt O75676); assay: KinomeScan; type: binding; details: read-out: % control
[36] = target: T33, CDC2L5 (Homo sapiens, UniProt Q14004); assay: KinomeScan; type: binding; details: read-out: % control
T33 construct: purchased DiscoveRx KINOMEscan

[37] = target: T34, CDC2L2 (Homo sapiens, UniProt Q9UQ88); assay: KinomeScan; type: binding; details: read-out: % control
T34 construct: purchased DiscoveRx KINOMEscan

[38] = target: T35, ABL1(F317L)-nonphosphorylated (Homo sapiens, UniProt P00519, F317L); assay: KinomeScan; type: binding; details: read-out: % control
T35 construct: purchased DiscoveRx KINOMEscan

[39] = target: T36, TAOK2 (Homo sapiens, UniProt Q9UL54); assay: KinomeScan; type: binding; details: read-out: % control
T36 construct: purchased DiscoveRx KINOMEscan

Chain of EGFR(ErbB1) (P00533 25-1210): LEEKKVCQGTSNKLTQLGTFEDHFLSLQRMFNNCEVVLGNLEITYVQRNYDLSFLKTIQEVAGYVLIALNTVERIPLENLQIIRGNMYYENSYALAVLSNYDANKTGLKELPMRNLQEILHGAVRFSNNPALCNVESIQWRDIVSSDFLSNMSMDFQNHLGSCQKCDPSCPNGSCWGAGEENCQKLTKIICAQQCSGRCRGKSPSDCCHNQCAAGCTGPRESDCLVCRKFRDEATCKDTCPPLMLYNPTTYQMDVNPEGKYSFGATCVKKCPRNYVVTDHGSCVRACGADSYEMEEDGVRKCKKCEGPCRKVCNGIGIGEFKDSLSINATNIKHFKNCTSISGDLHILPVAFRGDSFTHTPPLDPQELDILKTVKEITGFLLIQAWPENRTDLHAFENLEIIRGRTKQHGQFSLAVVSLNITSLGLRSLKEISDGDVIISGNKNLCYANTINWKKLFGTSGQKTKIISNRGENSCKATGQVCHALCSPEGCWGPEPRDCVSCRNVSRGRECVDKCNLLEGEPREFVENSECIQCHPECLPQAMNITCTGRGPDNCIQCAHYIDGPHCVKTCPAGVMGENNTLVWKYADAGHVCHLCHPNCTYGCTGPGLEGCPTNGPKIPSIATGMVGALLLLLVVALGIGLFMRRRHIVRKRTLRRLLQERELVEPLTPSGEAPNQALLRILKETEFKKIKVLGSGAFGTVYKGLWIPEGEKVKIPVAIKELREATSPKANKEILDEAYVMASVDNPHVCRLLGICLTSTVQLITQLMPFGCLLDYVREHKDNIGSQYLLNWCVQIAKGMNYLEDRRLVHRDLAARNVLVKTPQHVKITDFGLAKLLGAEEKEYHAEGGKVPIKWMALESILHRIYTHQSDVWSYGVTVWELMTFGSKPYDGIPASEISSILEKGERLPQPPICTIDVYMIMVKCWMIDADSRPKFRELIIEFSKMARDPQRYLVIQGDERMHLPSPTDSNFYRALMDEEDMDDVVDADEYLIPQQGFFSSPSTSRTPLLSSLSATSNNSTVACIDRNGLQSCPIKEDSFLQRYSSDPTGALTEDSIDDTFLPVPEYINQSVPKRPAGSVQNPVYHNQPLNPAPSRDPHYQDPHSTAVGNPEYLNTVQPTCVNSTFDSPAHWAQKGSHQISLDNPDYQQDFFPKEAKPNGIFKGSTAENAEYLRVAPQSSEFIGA
T8 sequence (Q8TBX8 whole entry): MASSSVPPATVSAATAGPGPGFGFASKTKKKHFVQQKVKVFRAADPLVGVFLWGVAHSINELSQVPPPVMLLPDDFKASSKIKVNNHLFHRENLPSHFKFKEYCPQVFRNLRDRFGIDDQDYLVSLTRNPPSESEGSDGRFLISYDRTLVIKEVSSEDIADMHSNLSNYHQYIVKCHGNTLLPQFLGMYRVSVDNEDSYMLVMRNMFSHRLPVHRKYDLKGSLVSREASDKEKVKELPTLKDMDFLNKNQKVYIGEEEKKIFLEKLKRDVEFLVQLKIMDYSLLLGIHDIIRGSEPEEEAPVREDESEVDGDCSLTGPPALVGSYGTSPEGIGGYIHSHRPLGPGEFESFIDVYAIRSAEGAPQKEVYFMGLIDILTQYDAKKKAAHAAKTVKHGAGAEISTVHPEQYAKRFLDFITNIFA
T4 sequence (Q15349 1-388 limits assumed): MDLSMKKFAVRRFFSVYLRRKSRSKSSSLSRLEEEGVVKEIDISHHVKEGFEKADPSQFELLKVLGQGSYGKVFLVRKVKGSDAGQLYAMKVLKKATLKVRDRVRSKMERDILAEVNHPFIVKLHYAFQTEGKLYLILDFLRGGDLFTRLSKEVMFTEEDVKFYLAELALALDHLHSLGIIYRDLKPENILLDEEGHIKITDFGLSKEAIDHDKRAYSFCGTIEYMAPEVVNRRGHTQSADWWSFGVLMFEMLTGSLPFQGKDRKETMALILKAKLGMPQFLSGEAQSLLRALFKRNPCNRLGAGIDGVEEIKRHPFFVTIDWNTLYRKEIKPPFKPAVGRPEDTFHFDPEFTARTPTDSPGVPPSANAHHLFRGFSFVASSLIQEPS
T21 sequence (Q16659 whole entry): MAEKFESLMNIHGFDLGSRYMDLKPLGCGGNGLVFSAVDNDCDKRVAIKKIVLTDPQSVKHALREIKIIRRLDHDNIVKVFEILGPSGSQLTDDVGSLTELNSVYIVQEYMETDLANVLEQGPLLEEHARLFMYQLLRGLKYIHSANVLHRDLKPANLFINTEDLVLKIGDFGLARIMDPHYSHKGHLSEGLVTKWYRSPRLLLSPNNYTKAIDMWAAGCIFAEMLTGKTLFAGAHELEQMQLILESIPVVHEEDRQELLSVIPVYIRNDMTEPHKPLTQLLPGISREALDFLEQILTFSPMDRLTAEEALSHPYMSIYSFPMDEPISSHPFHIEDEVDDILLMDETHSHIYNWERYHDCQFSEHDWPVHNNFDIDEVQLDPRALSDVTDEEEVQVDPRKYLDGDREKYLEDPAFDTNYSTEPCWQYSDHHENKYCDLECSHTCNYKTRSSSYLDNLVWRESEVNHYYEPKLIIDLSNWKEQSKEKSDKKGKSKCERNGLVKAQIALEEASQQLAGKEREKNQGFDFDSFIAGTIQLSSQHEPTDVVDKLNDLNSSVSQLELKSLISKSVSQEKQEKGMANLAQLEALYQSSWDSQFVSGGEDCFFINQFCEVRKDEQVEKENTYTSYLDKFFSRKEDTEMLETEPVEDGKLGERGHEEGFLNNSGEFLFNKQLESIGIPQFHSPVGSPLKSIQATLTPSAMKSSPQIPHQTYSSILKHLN
T5 sequence (P42684 whole entry): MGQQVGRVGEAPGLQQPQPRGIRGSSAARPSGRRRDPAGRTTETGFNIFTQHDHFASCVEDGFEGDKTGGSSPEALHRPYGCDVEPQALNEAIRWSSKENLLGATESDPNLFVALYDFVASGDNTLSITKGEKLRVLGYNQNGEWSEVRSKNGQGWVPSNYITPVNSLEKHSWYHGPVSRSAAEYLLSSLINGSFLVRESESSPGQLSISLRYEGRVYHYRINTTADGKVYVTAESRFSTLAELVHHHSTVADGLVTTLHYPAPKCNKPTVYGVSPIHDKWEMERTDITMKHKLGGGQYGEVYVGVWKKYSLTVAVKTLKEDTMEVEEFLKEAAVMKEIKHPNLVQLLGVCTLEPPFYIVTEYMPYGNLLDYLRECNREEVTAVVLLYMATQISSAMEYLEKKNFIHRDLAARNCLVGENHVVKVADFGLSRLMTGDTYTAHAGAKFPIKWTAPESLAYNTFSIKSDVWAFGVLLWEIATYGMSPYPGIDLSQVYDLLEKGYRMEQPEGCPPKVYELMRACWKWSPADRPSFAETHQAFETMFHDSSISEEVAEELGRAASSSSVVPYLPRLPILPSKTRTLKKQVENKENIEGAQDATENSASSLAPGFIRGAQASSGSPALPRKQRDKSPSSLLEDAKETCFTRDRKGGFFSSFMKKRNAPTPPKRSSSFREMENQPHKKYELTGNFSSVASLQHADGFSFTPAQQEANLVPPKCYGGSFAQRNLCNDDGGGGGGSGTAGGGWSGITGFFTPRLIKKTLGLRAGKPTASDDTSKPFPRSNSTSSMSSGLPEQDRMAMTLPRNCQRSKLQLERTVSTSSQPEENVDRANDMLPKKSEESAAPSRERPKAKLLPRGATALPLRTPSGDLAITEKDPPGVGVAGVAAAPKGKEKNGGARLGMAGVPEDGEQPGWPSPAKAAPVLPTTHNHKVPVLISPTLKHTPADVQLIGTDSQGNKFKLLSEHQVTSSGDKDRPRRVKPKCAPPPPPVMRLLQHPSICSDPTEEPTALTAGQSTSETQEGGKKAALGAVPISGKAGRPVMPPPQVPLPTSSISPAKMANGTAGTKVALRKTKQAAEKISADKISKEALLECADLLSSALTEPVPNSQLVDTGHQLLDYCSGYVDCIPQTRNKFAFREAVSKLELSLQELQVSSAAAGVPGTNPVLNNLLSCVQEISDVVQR
T32 sequence (Q8IU85 whole entry): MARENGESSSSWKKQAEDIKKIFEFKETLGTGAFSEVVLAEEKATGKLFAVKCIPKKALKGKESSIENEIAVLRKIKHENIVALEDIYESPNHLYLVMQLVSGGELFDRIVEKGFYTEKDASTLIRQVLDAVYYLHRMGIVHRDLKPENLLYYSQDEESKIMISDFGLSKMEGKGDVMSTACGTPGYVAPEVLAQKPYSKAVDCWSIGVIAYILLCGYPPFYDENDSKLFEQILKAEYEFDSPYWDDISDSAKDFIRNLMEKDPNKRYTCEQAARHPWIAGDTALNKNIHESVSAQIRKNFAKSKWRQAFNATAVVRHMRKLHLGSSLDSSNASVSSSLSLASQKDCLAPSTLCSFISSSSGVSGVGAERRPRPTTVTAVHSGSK
T34 sequence (Q9UQ88 whole entry): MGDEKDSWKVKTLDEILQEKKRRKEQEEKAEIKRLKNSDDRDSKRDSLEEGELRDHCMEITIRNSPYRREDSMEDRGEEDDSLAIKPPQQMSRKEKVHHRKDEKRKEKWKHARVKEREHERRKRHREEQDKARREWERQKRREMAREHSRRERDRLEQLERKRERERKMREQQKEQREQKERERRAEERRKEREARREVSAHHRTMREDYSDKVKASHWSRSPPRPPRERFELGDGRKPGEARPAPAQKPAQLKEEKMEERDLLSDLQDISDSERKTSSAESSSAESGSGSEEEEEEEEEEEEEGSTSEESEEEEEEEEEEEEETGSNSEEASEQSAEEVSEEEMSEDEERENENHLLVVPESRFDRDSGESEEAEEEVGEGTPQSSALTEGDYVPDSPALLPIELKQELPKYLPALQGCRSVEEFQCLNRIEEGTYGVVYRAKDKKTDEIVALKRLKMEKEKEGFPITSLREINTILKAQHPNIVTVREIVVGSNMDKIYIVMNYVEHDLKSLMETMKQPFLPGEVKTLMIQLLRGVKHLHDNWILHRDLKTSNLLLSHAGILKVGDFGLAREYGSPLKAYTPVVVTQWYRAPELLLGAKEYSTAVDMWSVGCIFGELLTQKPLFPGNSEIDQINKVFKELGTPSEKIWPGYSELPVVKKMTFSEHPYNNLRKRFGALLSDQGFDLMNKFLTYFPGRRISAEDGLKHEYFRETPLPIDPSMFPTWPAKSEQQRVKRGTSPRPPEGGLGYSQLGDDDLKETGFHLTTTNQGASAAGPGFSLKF

**Q.** How did the remaining binding at 1 µM [1] turn out when C=CC(=O)N1CCC[C@@H](n2nc(-c3ccc(OCc4cccc(C)n4)c(Cl)c3)c3c(N)ncnc32)C1 [CHMFL-EGFR-26] was run?
**A.** 100%

**Q.** And the remaining binding at 1 µM [2]?
**A.** 100%

**Q.** And the remaining binding at 1 µM [3]?
**A.** 93%

**Q.** What about the remaining binding at 1 µM [4] of the same molecule?
**A.** 99%

**Q.** What about the remaining binding at 1 µM [5] of the same molecule?
**A.** 99%

**Q.** And the remaining binding at 1 µM [6]?
**A.** 100%

**Q.** And the remaining binding at 1 µM [7]?
**A.** 100%

**Q.** What about the remaining binding at 1 µM [8] of the same molecule?
**A.** 85%

**Q.** What about the remaining binding at 1 µM [9] of the same molecule?
**A.** 100%

**Q.** And the remaining binding at 1 µM [10]?
**A.** 100%

**Q.** What about the remaining binding at 1 µM [11] of the same molecule?
**A.** 97%

**Q.** And the IC50 [12]?
**A.** 0.131 µM

**Q.** And the IC50 [13]?
**A.** 0.0159 µM

**Q.** And the IC50 [14]?
**A.** 0.0039 µM

**Q.** And the IC50 [15]?
**A.** 0.0389 µM

**Q.** What about the IC50 [16] of the same molecule?
**A.** 0.0306 µM

**Q.** What about the IC50 [17] of the same molecule?
**A.** 0.0163 µM

**Q.** What about the IC50 [18] of the same molecule?
**A.** 0.00539 µM

**Q.** What about the remaining binding at 1 µM [19] of the same molecule?
**A.** 100%

**Q.** What about the remaining binding at 1 µM [20] of the same molecule?
**A.** 100%

**Q.** And the “% control” value [21]?
**A.** 100%

**Q.** What about the remaining binding at 1 µM [22] of the same molecule?
**A.** 100%

**Q.** What about the remaining binding at 1 µM [23] of the same molecule?
**A.** 100%

**Q.** What about the remaining binding at 1 µM [24] of the same molecule?
**A.** 64%

**Q.** And the remaining binding at 1 µM [25]?
**A.** 28%

**Q.** And the remaining binding at 1 µM [26]?
**A.** 97%

**Q.** And the remaining binding at 1 µM [27]?
**A.** 100%

**Q.** And the remaining binding at 1 µM [28]?
**A.** 65%

**Q.** What about the remaining binding at 1 µM [29] of the same molecule?
**A.** 96%

**Q.** What about the remaining binding at 1 µM [30] of the same molecule?
**A.** 61%

**Q.** What about the IC50 [31] of the same molecule?
**A.** 0.071 µM and 0.0714 µM

**Q.** What about the remaining binding at 1 µM [32] of the same molecule?
**A.** 98%

**Q.** What about the remaining binding at 1 µM [33] of the same molecule?
**A.** 100%

**Q.** And the remaining binding at 1 µM [34]?
**A.** 91%

**Q.** What about the remaining binding at 1 µM [35] of the same molecule?
**A.** 100%

**Q.** And the remaining binding at 1 µM [36]?
**A.** 100%

**Q.** And the remaining binding at 1 µM [37]?
**A.** 97%

**Q.** What about the remaining binding at 1 µM [38] of the same molecule?
**A.** 100%

**Q.** And the remaining binding at 1 µM [39]?
**A.** 78%
